Laboratory results published in US20190091339A1, “ABIRATERONE-CYCLIC OLIGOMER PHARMACEUTICAL FORMULATIONS AND METHODS OF FORMATION AND ADMINISTRATION THEREOF” (DISPERSOL TECHNOLOGIES, LLC, priority 2017, published 2019).
Several values for one entry are separate records, joined by “and”; a condition that tells them apart may be missing. Identical values can stand only once.

Key:
[1] = tested on: prostate specific antigen (PSA); settings: 1,000 mg abiraterone acetate daily, well controlled trials; cited from earlier work
[2] = tested on: 22RV1 human prostate tumor xenograft; assay: Anti-tumor study in 22RV1 xenograft mice; assay type: in vivo, CB.17 SCID mice; settings: for Tumor Volume Day 26, individual mice: QD to End, Oral Gavage; for % T/C (mean tumor volume) / % T/C (median tumor volume) / Mean Tumor Volume / Median Tumor Volume: Day 26
Method: The objective of the xenograft mice study was to determine the anti-tumor activity of a composition made per Example 2.4 as a single agent versus abiraterone acetate in the 22RV1 human prostate tumor xenograft model. The study was conducted in CB.17 SCID mice injected with 22RV1 cells (5×10^6 cells/mouse) in the subcutaneous right flank. Tumors were grown to a mean tumor size between 100 and 150 mm^3 prior to study enrollment. The mice were dosed with the test article and reference once-daily by oral gavage per Table 12. Tumor volume was measured throughout the study. The study was terminated on day 26 when mean tumor volume of two experimental groups reached ≥1500 mm^3.

[3] = Abiraterone Acetate 22.4 mg/kg QD PO
[4] = Abiraterone Acetate 100 mg/kg QD PO

CC(=O)O[C@H]1CC[C@@]2(C)C(=CC[C@@H]3[C@@H]2CC[C@]2(C)C(c4cccnc4)=CC[C@@H]32)C1 [Abiraterone Acetate, (3β)-17(3-pyridinyl)androsta-5,16-dien-3-ol acetate]
treated patients achieving target PSA reductions [1]: up to 60%
Tumor Volume Day 26, individual mice ([2]; Abiraterone Acetate Dose #1, 22.4 mg/kg): 1,062 mm^3 and 1,389 mm^3 and 808 mm^3 and 1,555 mm^3 and 2,107 mm^3 and 726 mm^3 and 1,606 mm^3 and 1,119 mm^3 and 1,127 mm^3 and 1,143 mm^3
Tumor Volume Day 26, individual mice ([2]; Abiraterone Acetate Dose #2, 100 mg/kg): 1,609 mm^3 and 1,639 mm^3 and 1,084 mm^3 and 1,490 mm^3 and 1,429 mm^3 and 1,453 mm^3 and 1,152 mm^3 and 1,568 mm^3 and 1,287 mm^3 and 2,787 mm^3
% T/C (mean tumor volume) [2, 3]: 84.1%
% T/C (median tumor volume) [2, 3]: 72.8%
Mean Tumor Volume [2, 3]: 1264.2 mm^3
Median Tumor Volume [2, 3]: 1135.0 mm^3
% T/C (mean tumor volume) [2, 4]: 103.1%
% T/C (median tumor volume) [2, 4]: 94.4%
Mean Tumor Volume [2, 4]: 1549.4 mm^3
Median Tumor Volume [2, 4]: 1471.5 mm^3
tumor growth relative to vehicle control ([2]; once-daily oral gavage, low and high doses, 22RV1 xenograft mice): did not result in statistically different tumor growth
